Patent US20240325477A1, “PROTEIN HYDROLYSATE OF MORINGA PEREGRINA SEED CAKE FOR ITS APPLICATION AS A MEDICAMENT, PROCESS FOR OBTAINING SAME AND PHARMACEUTICAL AND DERMATOLOGICAL COMPOSITIONS” (AGENCE FRANCAISE POUR LE DEVELOPPEMENT D'AL ULA, priority 2020, published 2024)
In brackets after ≈: the same amount, converted by molar mass. Where two headings read alike, the source gives them in different places. One block for each compound: values may come before it. The star is where a group is joined. Decanoyl = CCCCCCCCCC(=O)*; CH2Cl = ClC*

Key:
recombinant human furin = recombinant human furin (Homo sapiens, UniProt P09958); assay: Furin convertase activity, cleavage of fluorescent substrate; assay type: biochemical; details: 100 nM
Chain of recombinant human furin (P09958 108-794): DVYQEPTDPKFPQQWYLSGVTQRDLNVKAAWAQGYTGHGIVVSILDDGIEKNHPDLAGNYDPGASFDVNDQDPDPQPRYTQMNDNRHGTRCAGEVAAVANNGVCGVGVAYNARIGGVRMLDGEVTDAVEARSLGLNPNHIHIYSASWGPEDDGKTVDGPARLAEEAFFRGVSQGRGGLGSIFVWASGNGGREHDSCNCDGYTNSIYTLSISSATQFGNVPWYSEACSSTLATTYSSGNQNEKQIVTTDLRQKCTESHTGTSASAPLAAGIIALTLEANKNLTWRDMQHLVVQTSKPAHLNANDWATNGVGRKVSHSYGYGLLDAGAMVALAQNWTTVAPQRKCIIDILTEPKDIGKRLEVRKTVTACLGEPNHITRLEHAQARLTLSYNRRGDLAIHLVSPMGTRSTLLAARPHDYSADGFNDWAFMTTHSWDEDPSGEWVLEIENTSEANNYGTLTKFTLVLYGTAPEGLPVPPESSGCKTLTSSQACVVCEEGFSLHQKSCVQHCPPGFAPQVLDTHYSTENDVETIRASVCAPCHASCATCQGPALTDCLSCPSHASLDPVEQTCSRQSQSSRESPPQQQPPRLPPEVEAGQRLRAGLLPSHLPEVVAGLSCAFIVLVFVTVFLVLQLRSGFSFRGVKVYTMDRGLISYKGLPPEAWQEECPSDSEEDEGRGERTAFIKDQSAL
Experimental: Protocol: The study was carried out using a recombinant human furin, which catalyzes cleavage of a specific fluorescent reference substrate.
100 nM decanoyl-Arg-Val-Lys-Arg-CMK was used as a reference inhibitor for the activity of furin.
The furin was pre-incubated for 10 minutes at ambient temperature in the absence (control) or in the presence of a reference product, or of increasing concentrations of the test compound:
“Peregrina protein hydrolysate”; 0.02; 0.2 and 2% (v/v).
At the end of the pre-incubation step, a furin substrate was added and the experimental conditions were incubated once again at ambient temperature away from light for 5 minutes. All of the experiments were carried out in triplicate. […]
Cleavage of the fluorescent furin substrate was monitored for 5 minutes after addition of the substrate by reading the fluorescence at 485 nm/535 nm. […]
Evaluation protocol: Cleavage of the fluorescent furin substrate was monitored for 5 minutes after addition of the substrate by recording the fluorescence at 485 nm/535 nm. […]. […] The statistical significance of the difference observed between the “Control” and “Reference product” groups was evaluated by a Student test (p<0.001). The statistical significance of the difference observed between the “Control” and “Test compound” groups was evaluated by a one-way ANOVA, followed by a Holm-Sidak test (p<0.05). […]

DKK-1 = DKK-1 synthesis and release by normal human fibroblasts, ELISA, 48 h; assay type: cell-based; details: 100 nM
Experimental: The aim of this study is to evaluate the effect of the peregrina protein hydrolysate on the synthesis and release of DKK-1 in a model compound of normal human fibroblasts in a monolayer culture.
Protocol: Human fibroblast cells were obtained from a donor. In order to carry out the experiments, the fibroblasts were cultured in a monolayer to confluence. 100 nM dexamethasone was used as a reference inducer for the synthesis and release of DKK-1. The […] were incubated for 48 hours in the absence (control) or in the presence of the reference product or of the test product: “peregrina protein hydrolysate”: 0.01%; 0.1% and 0.5% (v/v).
At the end of the incubation, the incubation media were removed in order to carry out the DKK-1 liberation method. […]
At the end of the incubation period of 48 hours, the DKK-1 liberated into the incubation medium was quantified with the aid of a sensitive and specific ELISA kit.
At the end of the incubation period, the proteins contained in the cell lysates were quantified with the aid of a spectrocolorimetric method (Bradford method). […]
The level of significance between the “control” and the “reference product” was evaluated with the aid of a Student test (p<0.05).
The level of significance between the “Control” and the “test product” was evaluated by a single factor analysis of variance (one-way ANOVA) followed by a Holm-Sidak test (p<0.05).

[1] = test system: mouse embryo fibroblasts Balb/c 3T3 clone 31; assay: In vitro 3T3 NRU phototoxicity test; assay type: cell-based; details: BALB/c3T3, light or radiation study, read-out: Cl50 (the source's name)
Excerpt: The principle of the test is the comparison of the cytotoxicity of the protein hydrolysate in accordance with Example 1 in the presence and in the absence of a non-cytotoxic dose of UVA, on cells under culture. […] The cells used were mouse embryo fibroblasts from the Balb/c 3T3 clone 31 (ATCC-CCL163) line. The positive control was a solution of chlorpromazine (CAS number: 69-09-0). The negative control was a diluent for the test and reference extract (buffered saline solution+/−1% solvent). […] The fibroblasts were trypsinized and two 96-well culture plates were inoculated in an amount of 100 μL of a 2×10^5 cells/mL (i.e. 2×10^6 cells per well) cell suspension in complete culture medium. The inoculated plates were incubated in an oven for 24 hours at 37° C., 5% CO2. At the end of the incubation, semi-confluence of the cell mat was verified. […] The spectral irradiation of the test device was measured in the wavelength range 250 to 700 nanometers with a calibrated spectroradiometer.
One of the 2 plates was irradiated with its cover at ambient temperature, and the other plate was protected from UVA and stored at ambient temperature for the irradiation period. […] The next day, the cell viability (growth, morphology, integrity of the monolayer) was evaluated by observations using a phase contrast microscope. […] The absorbances were measured at 450 nm.

Inhibition of the activity of furin (recombinant human furin): 97.9%
Compound: decanoyl-Arg-Val-Lys-Arg-CMK (Decanoyl-RVKR-CH2Cl)

Compound: C[C@@H]1C[C@H]2[C@@H]3CCC4=CC(=O)C=C[C@]4(C)[C@@]3(F)[C@@H](O)C[C@]2(C)[C@@]1(O)C(=O)CO [Dexamethasone, dexamethasone]
Increase of the DKK-1 liberated compared with the Control (DKK-1): 181.8%

Compound: CN(C)CCCN1c2ccccc2Sc2ccc(Cl)cc21 [Chlorpromazine, chlorpromazine]
IC50 ([1]; in the absence of UVA): 7 to 90 µg/mL (≈ 22 to 282 µM)
IC50 ([1]; in the presence of UVA): 0.1 to 2 µg/mL
